Test results published in patent US5728670A, “Enzymatically stable alkyl (alkyl glycosid) uronates as nonionic surfactants and a process for their manufacture” (Lever Brothers Company, Division of Conopco, Inc., priority 1993, dated 1998).

Key:
Lipolase = biological target: T1, Lipolase (Thermomyces lanuginosus, UniProt O59952); test: Enzyme stability: Lipolase-catalyzed hydrolysis monitored by pH-stat titration; format: biochemical; conditions: for MEAN SLOPE: Tris-HCl pH 8.0, 30° C., acid production titrated with 0.1N NaOH; for STABILITY / REL VELOCITY: Lipolase hydrolysis; for STABILITY: fold relative to α-methyl D-glucose monolaurate; for REL VELOCITY: relative to α-methyl D-glucose monolaurate = 100
T1 sequence (O59952 23-291): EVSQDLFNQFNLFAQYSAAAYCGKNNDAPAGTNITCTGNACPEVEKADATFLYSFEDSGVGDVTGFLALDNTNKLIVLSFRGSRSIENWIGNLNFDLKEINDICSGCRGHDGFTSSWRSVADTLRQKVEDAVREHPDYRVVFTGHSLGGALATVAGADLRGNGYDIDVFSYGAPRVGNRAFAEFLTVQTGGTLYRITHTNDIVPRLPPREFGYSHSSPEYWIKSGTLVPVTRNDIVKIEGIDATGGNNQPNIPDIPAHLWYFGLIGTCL
Protocol: Enzyme catalyzed hydrolysis of uronates was monitored using a TitraLab (Radiometer, Copenhagen) pH-stat autotitrator. Emulsified substrate was prepared by mixing water (5 mL), 1-butanol (1 mL), acacia gum (1 g), and substrate (0.357 mmoles) using a homogenizer (Omni-mixer, OCI Instruments)for 15 minutes. Emulsified substrate (5 mL) was mixed with Tris-HCl buffer (20 mL, 100 mM, pH 8.0) and equilibrated at 30° C. in a thermostatic reaction cup. Lipolase (20.5 LU) was added to initiate the reaction and the production of acid was monitored by titration with 0.1N NaOH.

[1] = Wash cycle stability (t1/2) by automatic titrator; format: physicochemical; conditions: 40° C., pH=10, 8.13×10^-3 M concentration; 8130 µM
Protocol: The wash cycle stability or half-life (t1/2) of decyl(methyl α-D-galactopyranosid)uronate was determined using an automatic titrator at 40° C., pH=10, 8.13×10^-3 M concentration.

Row | SMILES | MEAN SLOPE (Lipolase; Lipolase 20.5 LU) | STABILITY (Lipolase) | REL VELOCITY (Lipolase) | Enzyme stability to lipolase hydrolysis (in words) (Lipolase; Lipolase 20.5 LU, pH 8.0, 30° C.) | Wash cycle stability or half-life (t1/2) [1]
1 | CCCCCCCCCCOC(=O)[C@H]1O[C@@H](OC)[C@H](O)[C@@H](O)[C@H]1O [Decyl(Methyl β-D-Galactopyranosid)uronate] | 0.7101 | 5.6 X | 18 | – | –
2 | CCCCCCCCCCCC(=O)OC[C@H]1O[C@H](OC)[C@H](O)[C@@H](O)[C@@H]1O [α-Methyl D-Glucose Monolaurate, α-methyl D-glucose monolaurate] | 3.9921 | 1 X | 100 | – | –
3 | CCCCCCCCCCCC(=O)OC[C@H]1OC(O)[C@H](O)[C@@H](O)[C@@H]1O (stereo partly drawn) [D-Glucose Mono-laurate, D-glucose monolaurate] | 1.6880 | 2.4 X | 42 | – | –
4 | CCCCCCOC(=O)[C@H]1O[C@H](OC)[C@H](O)[C@@H](O)[C@H]1O [Hexyl(Methyl α-D-Galactopyranosid)uronate] | – | – | – | very stable/slow hydrolysis | –
5 | CCCCCCCCCCOC(=O)[C@H]1O[C@H](OC)[C@H](O)[C@@H](O)[C@H]1O [Decyl(Methyl α-D-Galactopyranosid)uronate] | – | – | – | – | 7.9 h
